The supplement of paper PMC8671470
± gives the standard deviation of the averaged measurements.

System: HL-60
Test: cell viability (% survival relative to DMSO control); higher = less cytotoxic
Conditions: 72 h
How it was run: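 For each screen, HL-60 cells in RPMI 1640 with 10% FBS carried either DMSO or 100 nM of one of three metabolic inhibitors while the full library was applied at five tenfold concentrations, 1–10,000 nM, in duplicate. Plates were 384-well and were kept 72 h at 37 °C, 5% CO2. Viability, measured by CellTiter-Glo, was normalised to wells with DMSO and with 10 μM proteasome inhibitor. Where area under the curve appears, it was fitted by four-parameter log-logistic models in drc and PharmacoGx.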

[1] = 0.001 µM, co-treatment: AZD3965 100 nM
[2] = 0.001 µM, co-treatment: DMSO vehicle
[3] = 0.001 µM, co-treatment: GSK2194069 100 nM
[4] = 0.001 µM, co-treatment: pictilisib 100 nM
[5] = 0.01 µM, co-treatment: AZD3965 100 nM
[6] = 0.01 µM, co-treatment: DMSO vehicle
[7] = 0.01 µM, co-treatment: GSK2194069 100 nM
[8] = 0.01 µM, co-treatment: pictilisib 100 nM
[9] = 0.1 µM, co-treatment: AZD3965 100 nM
[10] = 0.1 µM, co-treatment: DMSO vehicle
[11] = 0.1 µM, co-treatment: GSK2194069 100 nM
[12] = 0.1 µM, co-treatment: pictilisib 100 nM
[13] = 1 µM, co-treatment: AZD3965 100 nM
[14] = 1 µM, co-treatment: DMSO vehicle
[15] = 1 µM, co-treatment: GSK2194069 100 nM
[16] = 1 µM, co-treatment: pictilisib 100 nM
[17] = 10 µM, co-treatment: AZD3965 100 nM
[18] = 10 µM, co-treatment: DMSO vehicle
[19] = 10 µM, co-treatment: GSK2194069 100 nM
[20] = 10 µM, co-treatment: pictilisib 100 nM

Row | SMILES | cell viability [1] [%] | cell viability [2] [%] | cell viability [3] [%] | cell viability [4] [%] | cell viability [5] [%] | cell viability [6] [%] | cell viability [7] [%] | cell viability [8] [%] | cell viability [9] [%] | cell viability [10] [%] | cell viability [11] [%] | cell viability [12] [%] | cell viability [13] [%] | cell viability [14] [%] | cell viability [15] [%] | cell viability [16] [%] | cell viability [17] [%] | cell viability [18] [%] | cell viability [19] [%] | cell viability [20] [%]
1 | Sc1ncnc2nc[nH]c12 [6-mercaptopurine] | 101.3 ± 0.71 | 104 ± 1.1 | 99.93 ± 0.86 | 102 ± 1.8 | 102.8 ± 0.97 | 98.8 ± 7 | 106 ± 2.9 | 108 ± 6.8 | 96.3 ± 2 | 97.9 ± 2.4 | 95.62 ± 0.77 | 91.2 ± 1 | 101.2 ± 0.68 | 102 ± 4.9 | 89.8 ± 13 | 98.3 ± 10 | 23.9 ± 2 | 35.1 ± 1.3 | 35.9 ± 3 | 32.6 ± 0.66
2 | O=C(O)CC[C@H](NC(=O)c1ccc([N+](=O)[O-])cc1)C(=O)O [(S)-2-(4-Nitrobenzamido)pentanedioic acid] | 103.2 ± 0.55 | 101.4 ± 0.26 | 101 ± 4 | 90.7 ± 1.9 | 106 ± 5.3 | 100 ± 2.4 | 110 ± 1.1 | 102 ± 1.9 | 102 ± 1.6 | 99 ± 1.6 | 103 ± 4.5 | 88.78 ± 0.71 | 102 ± 2.1 | 102 ± 2.3 | 102 ± 3.7 | 102 ± 10 | 103 ± 7.4 | 101 ± 1.4 | 99.2 ± 2.3 | 92.3 ± 24
3 | O=C1Nc2ccccc2/C1=C\NCCc1ccc(O)c(O)c1 [AC1NZZMF] | 95.6 ± 7.7 | 103 ± 1.8 | 99.4 ± 2.7 | 102 ± 6.3 | 90.2 ± 23 | 100.1 ± 0.38 | 98.5 ± 11 | 110 ± 4.9 | 102 ± 4 | 102 ± 1.2 | 100 ± 1.1 | 97.2 ± 13 | 105 ± 8.5 | 102.2 ± 0.11 | 99 ± 0.43 | 103 ± 13 | 87.9 ± 9.7 | 100.97 ± 0.1 | 95.4 ± 1.8 | 74.1 ± 3.9
4 | Cc1ccc(S(=O)(=O)NC2c3ccccc3Oc3ccccc32)cc1 [AH-7614] | 100 ± 1.6 | 100 ± 0.64 | 104 ± 2.2 | 104.2 ± 0.15 | 99.6 ± 0.97 | 100.5 ± 0.4 | 101 ± 2.9 | 90.6 ± 8.2 | 102 ± 4.4 | 100.4 ± 0.53 | 96.8 ± 5.2 | 96.6 ± 2.9 | 97.3 ± 4.8 | 102.5 ± 0.72 | 95.1 ± 9.7 | 92.2 ± 15 | 95.8 ± 1.2 | 96.04 ± 0.12 | 97.2 ± 3.4 | 96.4 ± 7
5 | C[C@]12CC[C@H](O)CC1=CC[C@@H]1[C@@H]2CC[C@]2(C)C(c3cccnc3)=CC[C@@H]12 [Abiraterone] | 109 ± 10 | 97.8 ± 1.5 | 106.3 ± 0.78 | 104 ± 14 | 103 ± 1.9 | 98 ± 2.3 | 96.1 ± 4.2 | 102 ± 8 | 93.4 ± 14 | 93.1 ± 11 | 86.9 ± 16 | 84.9 ± 22 | 100.2 ± 0.73 | 97.9 ± 1.7 | 107 ± 11 | 99.5 ± 8.8 | 103 ± 5.8 | 105 ± 5.8 | 105 ± 8.8 | 108 ± 1.3
6 | O=C(COc1ccc(C(=O)c2ccccc2)cc1)NC1CCN(Cc2ccccc2)CC1 [AdipoRon] | 101 ± 1.2 | 99.7 ± 4.2 | 105 ± 6.7 | 97.7 ± 7.3 | 99.9 ± 9.8 | 100.3 ± 0.47 | 103 ± 5.5 | 104 ± 8 | 106 ± 2 | 104 ± 5.3 | 101 ± 3.1 | 97.7 ± 3.8 | 98.45 ± 0.62 | 80.8 ± 30 | 92.1 ± 7.6 | 92.4 ± 10 | 105 ± 3.6 | 105 ± 5.4 | 93.3 ± 6.3 | 91.2 ± 1.6
